Test results taken from US9206427B2, “Compositions, kits, and methods for the modulation of immune responses using galectin-1” (Dana-Farber Cancer Institute, Inc., priority 2007, dated 2015).
Read-outs that look alike come from different tables or passages of the source.

Assays:
Th1-dependent responses = settings: cited from earlier work; for Th1-dependent responses: murine models of chronic inflammatory / autoimmune disorders
activated T cells [1] = experiment: Analysis of regulatory T cells (CD4+ CD25high FOXP3+) by triple-color flow cytometry; assay type: cell-based, human; settings: activated T cells treated with rGal1 or rGal1 and TDG, 24 hours; FIG. 3E
Experimental: T cells were purified, activated with anti-CD3- and anti-CD28-coated latex beads and treated with rGal1, rGal1 and TDG or left untreated for 24 hours. Thereafter, cells were stained with CD4-FITC and CD25-APC, washed, fixed, permeabilized and stained with FOXP3-PE antibody or rat IgG2b isotype control as previously described (Zorn et al. (2006) Blood 108, 1571-1579) (Human Regulatory T-cell staining kit, eBioscience, San Diego, Calif.). CD4^+ CD25^high FOXP3 Treg cells were identified and quantified using Beckman Cytomics FC500 flow cytometer as previously described (Zorn et al. (2006) Blood 108, 1571-1579).

activated T cells [2] = experiment: Th2 cytokine production by rGal1-treated activated T cells (cytometric bead array); assay type: cell-based, human; settings: anti-CD3/anti-CD28 activated T cells, rGal1 20 μM, TDG 100 mM, 16 hours; FIG. 3D
Experimental: Recombinant Gal1 was obtained and purified essentially as described (Toscano et al. (2006) J Immunol 176, 6323-6332). T cells were purified as described above and simultaneously activated with anti-CD3-(0.1 μg/mL) and anti-CD28-(0.5 μg/mL) coated latex beads (Invitrogen) and treated with rGal1 (20 μM) in RPMI 1640 medium containing 10% fetal bovine serum and 1 mM β-ME alone or rGal1 and the Gal1 inhibitor, thiodigalactoside (TDG, 100 mM) (Rabinovich et al. (1999) J Exp Med 190, 385-397) or left untreated for 16 hours. Supernatants were then analyzed for IL-4, IL-5, IL-10, and IL-13 using cytometric bead array (CBA) Flex Set beads according to manufacturer's protocol (BD Biosciences, San Jose, Calif.). In brief, multiplexed antibody-conjugated beads were incubated with culture supernatants or serial dilutions of cytokine standards for 1 hour. Thereafter, the PE detection reagent was added and samples were incubated for an additional 2 hours, washed and analyzed using FACS Aria Flow Cytometer (BD Biosciences). Results were captured with FACS Diva software and analyzed with the FCAP1.1 program (BD Biosciences).

normal activated T-cells = experiment: rGal1-induced apoptosis of activated T cells (FITC-annexin V and PI double staining); assay type: cell-based, human; settings: activated T cells treated with rGal1 in the presence or absence of TDG; FIG. 4
Experimental: Activated T-cells were either untreated or treated with rGal1 in the presence or absence of TDG. Thereafter, apoptosis was assessed by FITC-annexin V and PI double staining. The histograms (left panels) are representative of 3 separate experiments that were averaged to obtain the percent positive cells in the bar graphs (right panels).
Recombinant Gal1 was obtained and purified essentially as described (Toscano et al. (2006) J Immunol 176, 6323-6332). T cells were purified as described above and simultaneously activated with anti-CD3-(0.1 μg/mL) and anti-CD28-(0.5 μg/mL) coated latex beads (Invitrogen) and treated with rGal1 (20 μM) in RPMI 1640 medium containing 10% fetal bovine serum and 1 mM β-ME alone or rGal1 and the Gal1 inhibitor, thiodigalactoside (TDG, 100 mM) (Rabinovich et al. (1999) J Exp Med 190, 385-397) or left untreated for 16 hours. Supernatants were then analyzed for IL-4, IL-5, IL-10, and IL-13 using cytometric bead array (CBA) Flex Set beads according to manufacturer's protocol (BD Biosciences, San Jose, Calif.). […] Thereafter, the PE detection reagent was added and samples were incubated for an additional 2 hours, washed and analyzed using FACS Aria Flow Cytometer (BD Biosciences). Results were captured with FACS Diva software and analyzed with the FCAP1.1 program (BD Biosciences). […]

HD-MY-Z cells = experiment: Proliferation rate and viability of transduced HD-MY-Z cells; assay type: cell-based, human; settings: after Gal1 knockdown
From the text: Gal1 specific siRNA was designed using siRNA Selection Program (Yuan et al. (2004) Nucleic Acids Res 32, W130-134) (available on the World Wide Web at jura.wi.mit.edu/bioc/siRNAext/), synthesized as single-stranded DNA oligonucleotides by Integrated DNA Technologies (IDT, Inc., Coralville, Iowa) and annealed. Gal1-specific oligonucleotide (Gal1 RNAi, […] (SEQ ID NO: 12) or scrambled oligonucleotide (SCR, […] (SEQ ID NO: 13) were ligated into the linearized pSIREN-RetroQ retroviral vector (BD Clontech, Mountain View, Calif.). Generation of recombinant retrovirus and infection of HD-MY-Z cells was performed as previously described (Juszczynski et al. (2006) Mol Cell Biol 26, 5348-5359). After infection, cells were subjected to puromycin selection (0.5 μg/mL) and subcloning by limiting dilution. Thereafter, whole-cell extracts of obtained subclones were prepared and screened for Gal1 expression by immunoblotting as described above.

[3] = system: CD4+ T cells co-cultured with HD-MY-Z cells; experiment: T-bet and GATA-3 expression in co-cultured CD4+ T cells (QPCR); assay type: cell-based, human; settings: CD4+ cells after 24-48 hours co-culture, Gal1 shRNA versus SCR shRNA HD-MY-Z; FIG. 3C
Experimental: 3. Analyses of T-bet and GATA-3 expression in co-cultured CD4^+ T cells. After PHA-activated T-cells were co-cultured with HD-MY-Z cells expressing either scrambled shRNA or Gal1 specific shRNA for 24-48 hours, cells were collected and non-viable cells were depleted by Ficoll-Hypaque gradient centrifugation. Remaining viable cells were washed, incubated with CD4 MACS microbeads and purified using a MACS LS column according to the manufacturer's protocol (Miltenyi Biotec). Thereafter, RNA was obtained from the isolated CD4^+ cells and cDNA was synthesized from total RNA (3 μg) as described above. GATA-3, T-bet and GAPDH (housekeeping control) transcript abundance was evaluated by QPCR using Power SYBR green PCR Master Mix (Applied Biosystems, Foster City, Calif.), GAPDH primers listed above and the following GATA3 and T-bet primers: GATA3, Forward: […] (SEQ ID NO: 14); GATA3, Reverse: ACACCTGGCTCCCGTGGT (SEQ ID NO: 15); T-bet, Forward: […] (SEQ ID NO: 16); T-bet, Reverse: […] (SEQ ID NO: 17). PCR and transcript abundance analysis was performed as described above. GATA-3 and T-bet expression in purified CD4^+ cells from SCR shRNA and Gal1 shRNA HD-MY-Z/T-cell cocultures were then compared.

[4] = system: activated T cells co-cultured with HD-MY-Z cells; experiment: Viable T cells after co-culture with Gal1 shRNA or SCR shRNA HD-MY-Z cHL cells (Annexin-V, CD3, CD4 flow cytometry); assay type: cell-based, human; settings: PHA-activated T cells, 6 hours co-culture, Gal1 shRNA versus SCR shRNA HD-MY-Z; FIG. 3B
Experimental: 1. Co-culture. Peripheral blood mononuclear cells (PBMCs) were obtained from normal blood donors by Ficoll-Hypaque (GE Healthcare) gradient centrifugation. Thereafter, T cells were purified using Pan T Cell Isolation Kit II (Miltenyi Biotec, Auburn, Calif.) and activated with 1 μg/mL PHA (Sigma-Aldrich) for 64 hours. 1×10^6 of activated T cells were then co-cultured with monolayers (3×10^6 cells) of HD-MY-Z cells expressing either scrambled shRNA or Gal1 specific shRNA for 6 hours at 37° C.
2. Analyses of viable T cells. Following co-culture, all cells were harvested and sequentially stained with CD3-PE and CD4-PE-Cy5 (Beckman Coulter, Fullerton, Calif.) followed by Annexin V-FITC and analyzed with a Beckman Cytomics FC500 flow cytometer. The numbers of viable (annexin V-) and (propidium iodide-) CD3^+ and CD4^+ T cells in Gal1 shRNA or scrambled shRNA HD-MY-Z/T-cell co-cultures were then compared.

Gal1 = experiment: RNA-interference mediated Gal1 knock-down in HD-MY-Z cells (immunoblot); assay type: cell-based, human; settings: HD-MY-Z cells transduced with pSIREN-RetroQ vector; FIG. 3A
From the text: DLBCL and cHL cell lines were maintained as previously described (Mathas et al. (2002) Embo J 21, 4104-4113; Polo et al. (2007) Proc Natl Acad Sci USA 104, 3207-3212). Cells were lysed, size-fractionated on NuPAGE Novex 4-12% Bis-Tris Gels (Invitrogen, Carlsbad, Calif.), and transferred to PVDF membranes (Millipore Corp., Bedford, Mass.). Membranes were immunostained with purified Gal1 rabbit IgG (Rubinstein et al. (2004) Cancer Cell 5, 241-251) and HRP-conjugated donkey anti-rabbit antibody (GE Healthcare, Piscataway, N.J.) and developed using a chemiluminescent method (ECL, GE Healthcare).
Gal1 specific siRNA was designed using siRNA Selection Program (Yuan et al. (2004) Nucleic Acids Res 32, W130-134) (available on the World Wide Web at jura.wi.mit.edu/bioc/siRNAext/), synthesized as single-stranded DNA oligonucleotides by Integrated DNA Technologies (IDT, Inc., Coralville, Iowa) and annealed. […]

| Molecule | cytokine profile (Th1-dependent responses; murine models of Th1-driven chronic inflammatory and autoimmune disorders) | Th1-dependent responses (Th1-dependent responses; listed as Gal1) | Th1-dependent responses (Th1-dependent responses; listed as recombinant Gal1) | T-cell susceptibility to activation-induced cell death (Th1-dependent responses; murine models of chronic inflammatory diseases) | CD4+ CD25high FOXP3+ Treg population (activated T cells [1]) | IL-4 in supernatants (activated T cells [2]) | IL-5 in supernatants (activated T cells [2]) | IL-10 in supernatants (activated T cells [2]) | IL-13 in supernatants (activated T cells [2]) | apoptosis of total activated T cells (normal activated T-cells) | proliferation rate or viability of transduced HD-MY-Z cells (HD-MY-Z cells) | expression of GATA-3 (Th2-specific transcription factor) [3] | expression of T-bet (Th1-specific transcription factor) [3] | viable Th (CD4+) T cells [4] | viable total (CD3+) T cells [4] | Gal1 protein expression (Gal1) |
| --- | --- | --- | --- | --- | --- | --- | --- | --- | --- | --- | --- | --- | --- | --- | --- | --- |
| rGal1: recombinant Gal1 (galectin-1), a glycan-binding protein | skewed towards Th2 cytokine profiles | dramatically suppressed | suppressed | increased | significantly increased | significantly higher amounts | significantly higher amounts | significantly higher amounts | significantly higher amounts | induced apoptosis |  |  |  |  |  |  |
| Gal1 shRNA: pSIREN-RetroQ retroviral vector encoding Gal1-specific shRNA; target sequence GCTGCCAGATGGATACGAA (SEQ ID NO: 1) (DNA GATCCGCTGCCAGATGGATACGAATTCAAGAGATTCGTATCCATCTGGCAGCTTTTTTG) |  |  |  |  |  |  |  |  |  |  | did not alter | higher expression of GATA-3 than CD4^+ T cells from Gal1 shRNA HD-MY-Z co-cultures | control (SCR) HD-MY-Z cells exhibited significantly lower expression of T-bet | significantly fewer viable total (CD3^+) and Th (CD4^+) T cells in control (SCR) HD-MY-Z co-cultures than in co-cultures of HD-MY-Z cells with Gal1 knockdown | significantly fewer viable total (CD3^+) and Th (CD4^+) T cells in control (SCR) HD-MY-Z co-cultures than in co-cultures of HD-MY-Z cells with Gal1 knockdown | can be blocked |
| OC[C@H]1O[C@@H](S[C@@H]2O[C@H](CO)[C@H](O)[C@H](O)[C@H]2O)[C@H](O)[C@@H](O)[C@H]1O [TDG, thiodigalactoside, reference compound] |  |  |  |  | completely blocked this effect | specifically blocked this effect | specifically blocked this effect | specifically blocked this effect | specifically blocked this effect | completely blocked rGal1-induced apoptosis |  |  |  |  |  |  |
